# Laboratory results taken from PubChem BioAssay AID1963984 (Molecular Pharmacology Branch, DTP, NCI, 2024).
# Tested on: 233499-124-R-J3-PDC spheroids with HUVEC/MSC, viability
# Experiment: Anticancer human tumor 233499-124-R-J3-PDC patient-derived colon adenocarcinoma cell line growth inhibition [PI3K]
# Conditions: for IC50: curve of first compound; for viability, T/C: stronger effect = lower value
# Method in brief: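 Viability of mixed-cell spheroids was determined after exposure to pairwise combinations, one partner being inavolisib, alpelisib, duvelisib or copanlisib. Highest tested concentration matched clinical Cmax where known and 10 microM where not, descending in half-log steps.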
# 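Also: spheroids exposed to agents for seven days before readout.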
# 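For viability, T/C in this document: percent viability relative to DMSO vehicle control taken as 100%.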
smiles,measurement,setting,value
CC1(C)CCC(CN2CCN(c3ccc(C(=O)NS(=O)(=O)c4ccc(NCC5CCOCC5)c([N+](=O)[O-])c4)c(Oc4cnc5[nH]ccc5c4)c3)CC2)=C(c2ccc(Cl)cc2)C1 + COc1c(OCCCN2CCOCC2)ccc2c3n(c(=NC(=O)c4cnc(N)nc4)nc12)CCN3,IC50,second compound 0.00316 µM,> 10 µM
same,IC50,second compound 0.01 µM,> 10 µM
same,IC50,second compound 0.0316 µM,> 10 µM
same,IC50,second compound 0.1 µM,8.16 µM
same,IC50,second compound 0.316 µM,< 0.0316 µM
same,IC50,second compound 1 µM,< 0.0316 µM
same,"viability, T/C","second compound 0.00316 µM, first compound 0.0316 µM",93.8%
same,"viability, T/C","second compound 0.00316 µM, first compound 0.1 µM",108%
same,"viability, T/C","second compound 0.00316 µM, first compound 0.316 µM",113%
same,"viability, T/C","second compound 0.00316 µM, first compound 1 µM",101%
same,"viability, T/C","second compound 0.00316 µM, first compound 3.16 µM",99%
same,"viability, T/C","second compound 0.00316 µM, first compound 10 µM",100%
same,"viability, T/C","second compound 0.01 µM, first compound 0.0316 µM",96.7%
same,"viability, T/C","second compound 0.01 µM, first compound 0.1 µM",104%
same,"viability, T/C","second compound 0.01 µM, first compound 0.316 µM",92%
same,"viability, T/C","second compound 0.01 µM, first compound 1 µM",108%
same,"viability, T/C","second compound 0.01 µM, first compound 3.16 µM",101%
same,"viability, T/C","second compound 0.01 µM, first compound 10 µM",93.1%
same,"viability, T/C","second compound 0.0316 µM, first compound 0.0316 µM",96.5%
same,"viability, T/C","second compound 0.0316 µM, first compound 0.1 µM",95%
same,"viability, T/C","second compound 0.0316 µM, first compound 0.316 µM",86.4%
same,"viability, T/C","second compound 0.0316 µM, first compound 1 µM",78.7%
same,"viability, T/C","second compound 0.0316 µM, first compound 3.16 µM",80.1%
same,"viability, T/C","second compound 0.0316 µM, first compound 10 µM",61.2%
same,"viability, T/C","second compound 0.1 µM, first compound 0.0316 µM",60.6%
same,"viability, T/C","second compound 0.1 µM, first compound 0.1 µM",73.3%
same,"viability, T/C","second compound 0.1 µM, first compound 0.316 µM",55.5%
same,"viability, T/C","second compound 0.1 µM, first compound 1 µM",62.2%
same,"viability, T/C","second compound 0.1 µM, first compound 3.16 µM",53.3%
same,"viability, T/C","second compound 0.1 µM, first compound 10 µM",49.5%
same,"viability, T/C","second compound 0.316 µM, first compound 0.0316 µM",19.8%
same,"viability, T/C","second compound 0.316 µM, first compound 0.1 µM",28.9%
same,"viability, T/C","second compound 0.316 µM, first compound 0.316 µM",15.3%
same,"viability, T/C","second compound 0.316 µM, first compound 1 µM",40.2%
same,"viability, T/C","second compound 0.316 µM, first compound 3.16 µM",17.5%
same,"viability, T/C","second compound 0.316 µM, first compound 10 µM",26.6%
same,"viability, T/C","second compound 1 µM, first compound 0.0316 µM",7.27%
same,"viability, T/C","second compound 1 µM, first compound 0.1 µM",2.35%
same,"viability, T/C","second compound 1 µM, first compound 0.316 µM",15.9%
same,"viability, T/C","second compound 1 µM, first compound 1 µM",13.9%
same,"viability, T/C","second compound 1 µM, first compound 3.16 µM",6.93%
same,"viability, T/C","second compound 1 µM, first compound 10 µM",13.2%
